In patent publication US5891869A, “Basic oxazoline-amide derivatives of GE2270 and GE2270-like antibiotics” (Biosearch Italia, S.p.A., priority 1995, dated 1999):

Experiments:
Assay in all cases: MIC by microbroth dilution
Strept. agalactiae L310 = format: cell-based, Streptococcus agalactiae; conditions: 0,01% BSA, 10^4 CFU/ml, 18-24 h, Todd Hewitt broth
Protocol: (§1) The minimal inhibitory concentration (MIC) has been determined by microbroth dilution methodology, in the presence of 0,01% (w/v) of bovine serum albumin (BSA). BSA is added to the diluent to avoid possible adherence of the compounds of the invention to the plastic surface of the microtiter wells, as disclosed also by B. Goldstein et al., Antimicrobial Agents and Chemotherapy, 37 (1993), 741-745.
(§2) Inocula were 10^4 CFU/ml, except for Propionibacterium acnes and Bacteroides fragilis (10^5 CFU/ml) MICs were read after 18-24 h, except for Haemophilus influenzae, P. acnes, B. fragilis (48 h).
(§3) All microorganisms were incubated at 37° C.; H. influenzae in a 5% CO2 atmosphere, anaerobes in a N2 --CO2 --H2 (80:10:10) mixture; other organisms in air.
(§4) The growth media are: Oxoid Iso-Sensitest broth for staphylococci and Enterococcus faecalis); Difco Todd Hewitt broth for streptococci; Difco brain heart infusion broth+1% Difco Supplement C. for H. influenzae; Difco Wilkins-Chalgren broth for anaerobes.

Strept. pneumoniae L44 = format: cell-based, Streptococcus pneumoniae; conditions: 0,01% BSA, 10^4 CFU/ml, 18-24 h, Todd Hewitt broth
Protocol: as §1, §2, §3, §4

Strept. sanguis L1721 = format: cell-based, Streptococcus sanguis; conditions: 0,01% BSA, 10^4 CFU/ml, 18-24 h, Todd Hewitt broth
Protocol: as §1, §2, §3, §4

[1] = tested on: Haemoph. influenzae ATCC 19418 L970; format: cell-based, Haemophilus influenzae; conditions: 0,01% BSA, 10^4 CFU/ml, 48 h, 5% CO2, brain heart infusion broth+1% Supplement C
Protocol: as §1, §2, §3, §4

[2] = tested on: Streptococcus pyogenes L49; format: cell-based; conditions: 0,01% BSA, 10^4 CFU/ml, 18-24 h, Todd Hewitt broth
Protocol: as §1, §2, §3, §4

[3] = tested on: Staphylococcus aureus L165; format: cell-based; conditions: 0,01% BSA, inoculum 10^4 CFU/ml, read after 18-24 h, Iso-Sensitest broth
Protocol: as §1, §2, §3, §4

[4] = tested on: Propionibact. acnes ATCC 6919 L1014; format: cell-based, Propionibacterium acnes; conditions: 0,01% BSA, 10^5 CFU/ml, 48 h, anaerobic, Wilkins-Chalgren broth
Protocol: as §1, §2, §3, §4

[5] = tested on: Staph. epidermidis ATCC 12228 L147; format: cell-based, Staphylococcus epidermidis; conditions: 0,01% BSA, 10^4 CFU/ml, 18-24 h, Iso-Sensitest broth
Protocol: as §1, §2, §3, §4

Staph. haemolyticus L602 = format: cell-based, Staphylococcus haemolyticus; conditions: 0,01% BSA, 10^4 CFU/ml, 18-24 h, Iso-Sensitest broth
Protocol: as §1, §2, §3, §4

[6] = tested on: Bacteroides fragilis ATCC 25285 L1011; format: cell-based; conditions: 0,01% BSA, 10^5 CFU/ml, 48 h, anaerobic, Wilkins-Chalgren broth
Protocol: as §1, §2, §3, §4

SMILES | MIC of the compounds (Strept. agalactiae L310) [µg/mL] | MIC of the compounds (Strept. pneumoniae L44) [µg/mL] | MIC of the compounds (Strept. sanguis L1721) [µg/mL] | MIC of the compounds [1] [µg/mL] | MIC of the compounds [2] [µg/mL] | MIC of the compounds [3] [µg/mL] | MIC of the compounds [4] [µg/mL] | MIC of the compounds [5] [µg/mL] | MIC of the compounds (Staph. haemolyticus L602) [µg/mL] | MIC of the compounds [6] [µg/mL]
CCN1CCCC1CNC(=O)C1COC(c2csc(-c3ccc4c(n3)-c3csc(n3)-c3csc(n3)C(C(O)c3ccccc3)NC(=O)CNC(=O)c3nc(sc3COC)C(C(C)C)NC(=O)c3nc(sc3C)C(CC(=O)NC)NC(=O)c3csc-4n3)n2)=N1 (mixture of isomers) [Compound 1] | 2 | 0.25 | 0.5 | 128 | 2 | 0.06 | – | – | – | –
CNC(=O)CC1NC(=O)c2csc(n2)-c2ccc(-c3nc(C4=NC(C(=O)NCCN5CCCC5)CO4)cs3)nc2-c2csc(n2)-c2csc(n2)C(C(O)c2ccccc2)NC(=O)CNC(=O)c2nc(sc2COC)C(C(C)C)NC(=O)c2nc1sc2C (mixture of isomers) [Compound 2] | 4 | 0.25 | 0.5 | 128 | 1 | 0.06 | – | – | – | –
CCN(CC)CCNC(=O)C1COC(c2csc(-c3ccc4c(n3)-c3csc(n3)-c3csc(n3)C(C(O)c3ccccc3)NC(=O)CNC(=O)c3nc(sc3COC)C(C(C)C)NC(=O)c3nc(sc3C)C(CC(=O)NC)NC(=O)c3csc-4n3)n2)=N1 (mixture of isomers) [Compound 3] | 4 | 0.5 | 0.5 | 128 | 2 | 0.06 | – | – | – | –
CNC(=O)CC1NC(=O)c2csc(n2)-c2ccc(-c3nc(C4=NC(C(=O)N(C)CCN(C)C)CO4)cs3)nc2-c2csc(n2)-c2csc(n2)C(C(O)c2ccccc2)NC(=O)CNC(=O)c2nc(sc2COC)C(C(C)C)NC(=O)c2nc1sc2C (mixture of isomers) [Compound 4] | 0.5 | 0.13 | 0.13 | 4 | 0.5 | 0.06 | 0.016 | 0.06 | 0.06 | 8
CNC(=O)CC1NC(=O)c2csc(n2)-c2ccc(-c3nc(C4=NC(C(=O)NCCCN(C)C)CO4)cs3)nc2-c2csc(n2)-c2csc(n2)C(C(O)c2ccccc2)NC(=O)CNC(=O)c2nc(sc2COC)C(C(C)C)NC(=O)c2nc1sc2C (mixture of isomers) [Compound 5] | 2 | 0.25 | 0.25 | – | 1 | 0.06 | – | – | – | 32
CNC(=O)CC1NC(=O)c2csc(n2)-c2ccc(-c3nc(C4=NC(C(=O)N5CCN(C)CC5)CO4)cs3)nc2-c2csc(n2)-c2csc(n2)C(C(O)c2ccccc2)NC(=O)CNC(=O)c2nc(sc2COC)C(C(C)C)NC(=O)c2nc1sc2C (mixture of isomers) [Compound 6] | 4 | 0.25 | 0.25 | – | 4 | 0.06 | – | – | – | 128
CNC(=O)CC1NC(=O)c2csc(n2)-c2ccc(-c3nc(C4=NC(C(=O)NCCN(C)C)CO4)cs3)nc2-c2csc(n2)-c2csc(n2)C(C(O)c2ccccc2)NC(=O)CNC(=O)c2nc(sc2COC)C(C(C)C)NC(=O)c2nc1sc2C (mixture of isomers) [Compound 7] | 8 | 1 | 1 | – | 4 | 0.13 | – | – | – | –
CCN(CCN(C)C)C(=O)C1COC(c2csc(-c3ccc4c(n3)-c3csc(n3)-c3csc(n3)C(C(O)c3ccccc3)NC(=O)CNC(=O)c3nc(sc3COC)C(C(C)C)NC(=O)c3nc(sc3C)C(CC(=O)NC)NC(=O)c3csc-4n3)n2)=N1 (mixture of isomers) [Compound 8] | 4 | 0.5 | 1 | – | 8 | 0.06 | – | – | – | –
CCN(CC)CCN(CC)C(=O)C1COC(c2csc(-c3ccc4c(n3)-c3csc(n3)-c3csc(n3)C(C(O)c3ccccc3)NC(=O)CNC(=O)c3nc(sc3COC)C(C(C)C)NC(=O)c3nc(sc3C)C(CC(=O)NC)NC(=O)c3csc-4n3)n2)=N1 (mixture of isomers) [Compound 9] | 32 | 0.5 | 1 | – | 2 | 0.06 | – | – | – | –
CNC(=O)CC1NC(=O)c2csc(n2)-c2ccc(-c3nc(C4=NC(C(=O)N5CCC(N(C)C)CC5)CO4)cs3)nc2-c2csc(n2)-c2csc(n2)C(C(O)c2ccccc2)NC(=O)CNC(=O)c2nc(sc2COC)C(C(C)C)NC(=O)c2nc1sc2C (mixture of isomers) [Compound 10] | 4 | 0.25 | 0.5 | – | 2 | 0.06 | – | – | – | –
CNC(=O)CC1NC(=O)c2csc(n2)-c2ccc(-c3nc(C4=NC(C(=O)NCCN(C(C)C)C(C)C)CO4)cs3)nc2-c2csc(n2)-c2csc(n2)C(C(O)c2ccccc2)NC(=O)CNC(=O)c2nc(sc2COC)C(C(C)C)NC(=O)c2nc1sc2C (mixture of isomers) [Compound 11] | > 128 | 2 | 4 | – | 8 | 0.13 | – | – | – | –
CNC(=O)CC1NC(=O)c2csc(n2)-c2ccc(-c3nc(C4=NC(C(=O)N5CC(C)NC(C)C5)CO4)cs3)nc2-c2csc(n2)-c2csc(n2)C(C(O)c2ccccc2)NC(=O)CNC(=O)c2nc(sc2COC)C(C(C)C)NC(=O)c2nc1sc2C (mixture of isomers) [Compound 12] | 4 | 0.5 | 0.5 | – | 2 | 0.06 | – | – | – | –
CNC(=O)CC1NC(=O)c2csc(n2)-c2ccc(-c3nc(C4=NC(C(=O)N(C)CC(=O)N(C)CCN(C)C)CO4)cs3)nc2-c2csc(n2)-c2csc(n2)C(C(O)c2ccccc2)NC(=O)CNC(=O)c2nc(sc2COC)C(C(C)C)NC(=O)c2nc1sc2C (mixture of isomers) [Compound 14] | 4 | 0.25 | 0.25 | – | 2 | 0.06 | – | – | – | –
CNC(=O)CC1NC(=O)c2csc(n2)-c2ccc(-c3nc(C4=NC(C(=O)NC(C)C(=O)N(C)CCN(C)C)CO4)cs3)nc2-c2csc(n2)-c2csc(n2)C(C(O)c2ccccc2)NC(=O)CNC(=O)c2nc(sc2COC)C(C(C)C)NC(=O)c2nc1sc2C (mixture of isomers) [Compound 15] | 4 | 0.25 | 0.5 | – | 4 | 0.06 | – | – | – | –
CNC(=O)CC1NC(=O)c2csc(n2)-c2ccc(-c3nc(C4=NC(C(=O)N(C)CCN(C)CCN(C)C)CO4)cs3)nc2-c2csc(n2)-c2csc(n2)C(C(O)c2ccccc2)NC(=O)CNC(=O)c2nc(sc2COC)C(C(C)C)NC(=O)c2nc1sc2C (mixture of isomers) [Compound 16] | 8 | 0.25 | 0.25 | – | 2 | 0.06 | – | – | – | –
CNC(=O)CC1NC(=O)c2csc(n2)-c2ccc(-c3nc(C4=NC(C(=O)N5CCN(CCCN(C)C)CC5)CO4)cs3)nc2-c2csc(n2)-c2csc(n2)C(C(O)c2ccccc2)NC(=O)CNC(=O)c2nc(sc2COC)C(C(C)C)NC(=O)c2nc1sc2C (mixture of isomers) [Compound 17] | 8 | 0.5 | 0.5 | – | 2 | 0.06 | – | – | – | –
CNC(=O)CC1NC(=O)c2csc(n2)-c2ccc(-c3nc(C4=NC(C(=O)N5CCCC5CN(C)CCN(C)C)CO4)cs3)nc2-c2csc(n2)-c2csc(n2)C(C(O)c2ccccc2)NC(=O)CNC(=O)c2nc(sc2COC)C(C(C)C)NC(=O)c2nc1sc2C (mixture of isomers) [Compound 21] | 4 | 0.25 | 0.25 | – | 1 | 0.06 | – | – | – | –
